We go through one compound from patent publication US6890361B2, “Modification of printed and dyed materials” (Novozymes North America, Inc., priority 2001, dated 2005).

One series deals with cutinase. The note with it: Table 3. As to the method: 5 mg/ml dye stock (suspension in 20 mM pH8 phosphate buffer) was made for each commercial dye. Since the absorbance of an opaque dye suspension cannot be detected by UV-vis spectrometer, these fives dyes were dissolved in acetone in the concentration of 50˜100 mg/L and the absorbance of each dye solution was measured as reference (see Table 1).
After 10 min. preheating in waterbath, each sample was dosed with 62.5 mg/L cutinase and incubated for 10 min. The samples were then taken out for UV-vis measurement.

The nature of series [1]: UV-vis absorbance of disperse dyes dissolved in acetone (reference). The note with it: dye concentration 50 mg/l. The class given is physicochemical.
The nature of series [2]: Alkaline (NaOH) treatment of disperse dye suspension, UV-vis absorbance of solubilized dye. The class given is physicochemical. The arrangement: key: #: Means absorbance was not detectable by UV-vis spectrometer due to the turbidity of the suspension. The note with it: in water, [Dye] = 50 mg/L, Table 3. The method, then: This procedure was repeated for the alkaline treatment at 80° C.

Turning to `CCC(=O)Nc1cc(N(CCOC(C)=O)CCOC(C)=O)ccc1N=Nc1ccc([N+](=O)[O-])cc1Cl` [Disperse Red 167], the “effect of cutinase treatment on dye solubility (in words)” value in the series on cutinase (cutinase treated) is given as “increase in dye solubility”. In addition, in the series on cutinase (in water, [Dye] = 50 mg/L, λ_max 480 nm), the “Cutinase Treated (70 C.) Abs@λ_max” value was found to be 0.4249 AU. The compound further returned an Abs@λ max in series [1] of 1.23. The “NaOH Treated (70 C.) Abs@λ_max” value in series [2] (70 C.) was “#”. Moreover, the “NaOH Treated (80 C.) Abs@λ_max” value in series [2] (80 C.) is given as “#”.
